In experiment [1] the test system is Ear Edema Caused by Arachidonic Acid. In words: Inhibition of Ear Edema Caused by Arachidonic Acid (I), Table 2. Format: in vivo, CF-1 Mice. Particulars: dose not given in Example 4, sixty minutes.
Experiment [2] concerns Ear Edema Caused by Oxazolone. In words: Inhibition of Ear Edema Caused by Oxazolone (I), Table 5. The class given is in vivo, CF-1 Mice. The conditions noted are these: i.p., 100 mg/kg, 30 min before irritant; sensitized mice; 24 h. From the text:
(§1) Such inflammatory agents typically include tetradecanoylphorbolacetate, arachidonic acid, xylene, capsaicin, oxazolone, carrageenan and the like. The reverse passive Arthus test offers another measure of the compound's utility in preventing an inflammatory response (Chang et al, Eur. J. Pharm. 69:155-164 (1981)). Test compounds are typically administered intraperitoneally or topically. For intraperitoneal administration, the test compound can be given in dimethyl sulfoxide or in 0.5% methylcellulose 30 minutes prior to administration of the irritant. For topical administration, the test compound can be dissolved in, for example, acetone, ethanol or dimethyl sulfoxide and applied about 15 minutes prior to application of the irritant. Results can be expressed as the percent decrease in swelling in the compound-treated animals as compared to control animals that receive only the irritant.
Inhibition of Ear Edema Caused by Oxazolone (I)
CF-1 Mice, 25-30 g body weight, six animals per group, were used. The mice were sensitized to the irritant two weeks prior to the test by dribbling 100 μl of a 3% solution of oxazolone in acetone onto the abdominal skin of the animal. Test compounds (compounds of Formula I where X is oxygen, R3, R4, A and B are hydrogen and Q is as indicated in Table 5) were administered intraperitoneally as follows. The test compound was dissolved in DMSO or 0.5% methylcellulose and 100 μl (100 mg/kg) was injected 30 minutes prior to irritant. The irritant, 3% oxazolone in acetone, was added to the surface of the ear, 5 μl added to the upper surface and 5 μl to the lower surface. After twenty four hours, the thickness of the ear was measured to 0.01 mm by a micrometer with loose drag positioned at the lateral-most edge of the mid-point of the pinna. Data were calculated as the inhibition by the test compound of increased ear thickness compared to control animals receiving only the irritant.

Experiment [3] has as its system Reverse Passive Artus Reaction. In words: Reverse Passive Artus Reaction (I), Table 6. Particulars: inhibition of blueing; i.p., 100 mg/kg, one hour before antigen. The class given is in vivo, Male CD rats.
Text: as §1
Reverse Passive Artus Reaction (I)
Male CD rats weighing between 200 and 250 g were used. Test compounds (compounds of Formula I where X is oxygen, R3, R4, A and B are hydrogen and Q is as indicated in Table 6) were dissolved in dimethyl sulfoxide and 200 μl of this solution (100 mg/kg) were injected intraperitoneally one hour before administration of the antigen. The animals were anesthetized inhalationally with isoflurane and then were injected through the penile vein with 1 ml of a solution of 2.5 mg of Evan's blue dye and 5.0 mg of human serum albumin in 1 ml of saline. This treatment was followed immediately by intracutaneous injections of 0.03 ml of anti-human albumin diluted to contain 3.65 mg of antibody at 3 sites along the midline back. Anesthesia was terminated and after three hours the animals were sacrificed. The skin was removed and the blue stained areas cut out. […] The tube contents were agitated and centrifuged, and the absorbance of the supernatant liquid was measured at 620 nm. The data were calculated as inhibition of blueing by test compound compared to control animals receiving only antigen and antibody.

Experiment [4] concerns Ear Edema Caused by Xylene. Description: Inhibition of Ear Edema Caused by Xylene (I), Table 3. The class given is in vivo, CF-1 Mice. Particulars: 2 h.
Text: as §1
Inhibition of Ear Edema Caused by Xylene (I)
CF-1 Mice, 25-30 g body weight, six animals per group, were used. Test compounds (compounds of Formula I where X is oxygen, R3, R4, A and B are hydrogen and Q is as indicated in Table 3) were administered intraperitoneally (100 mg/kg) or topically as follows. For intraperitoneal administration, the test compound was dissolved in DMSO or 0.5% methylcellulose and 100 μl was injected 30 minutes prior to irritant. For topical administration, test compound was dissolved in either acetone, ethanol or dimethyl sulfoxide and 5 μl (10 μg) applied to the upper surface (1 cm^2) of the ear and an additional 5 μl (10 μg) applied to the lower surface (1 cm^2) of the ear fifteen minutes prior to application of the irritant. The irritant, xylene, was added to the surface of the ear, 20 μl added to the upper surface and 20 μl to the lower surface. After two hours, the thickness of the ear was measured to 0.01 mm by a micrometer with loose drag positioned at the lateral-most edge of the mid-point of the pinna. Data were calculated as the inhibition by the test compound of increased ear thickness compared to that of control animals receiving only the irritant.

In experiment [5] the test system is Ear Edema Caused by Capsaicin. Description: Inhibition of Ear Edema Caused by Capsaicin, Table 4. Format: in vivo, CF-1 Mice.
Text: as §1
Inhibition of Ear Edema Caused by Capsaicin
CF-1 Mice, 25-30 g body weight, six animals per group, were used. […] After thirty minutes, the thickness of the ear was measured to 0.01 mm by a micrometer with loose drag positioned at the lateral-most edge of the mid-point of the pinna. Data were calculated as the inhibition by the test compound of increased ear thickness compared to control animals receiving only the irritant.

The test system of experiment [6] is Ear Edema Caused by Arachidonic Acid. Description: Inhibition of Ear Edema Caused by Arachidonic Acid (I), Table 2. Format: in vivo, CF-1 Mice. Particulars: i.p., 100 mg/kg; ear thickness at sixty minutes.
Text: as §1
Inhibition of Ear Edema Caused by Arachidonic Acid (I)
CF-1 Mice, 25-30 g body weight, six animals per group, were used. Test compounds (compounds of Formula I where X is oxygen, R3, R4, A and B are hydrogen and Q is as indicated in Table 2) were administered intraperitoneally (100 mg/kg) as follows. For intraperitoneal administration, test compound was dissolved in DMSO or 0.5% methylcellulose and 100 μl was injected 30 minutes prior to i.p. administration of 100 mg/kg of arachidonic acid. A solution of the irritant, arachidonic acid, 100 mg/ml in ethanol, was added to the surface of the ear, 5 μl added to the upper surface and 5 μl to the lower surface. After sixty minutes, the thickness of the ear was measured to 0.01 mm by a micrometer with loose drag positioned at the lateral-most edge of the mid-point of the pinna. Data were calculated as the percent inhibition by the test compound of increased ear thickness compared to control animals receiving only the irritant.

Experiment [7] has as its system Ear Edema Caused by Tetradecanoylphorbolacetate. Description: Inhibition of Ear Edema Caused by Tetradecanoylphorbolacetate (I), Table 1. The class given is in vivo, CF-1 Mice.
Text: as §1
Inhibition of Ear Edema Caused by Tetradecanoylphorbolacetate (I)
CF-1 Mice, 25-30 g body weight, six animals per group, were used. Test compounds (compounds of Formula I where X is oxygen, R3, R4, A and B are hydrogen and Q is as indicated in Table 1) were administered intraperitoneally (100 mg/kg) or topically as follows. For intraperitoneal administration, the test compound was dissolved in dimethyl sulfoxide or 0.5% methylcellulose and 100 μl was injected 30 minutes prior to irritant (100 mg/kg, i.p.). For topical administration, the test compound was dissolved in either acetone, ethanol or dimethyl sulfoxide and 5 μl (100 μg) applied to the upper surface (1 cm^2) of the ear and an additional 5 μl (100 μg) applied to the lower surface (1 cm^2) of the ear fifteen minutes prior to application of the irritant. A solution of the irritant, tetradecanoylphorbolacetate, 200 μg/ml, was added to the surface of the ear, 5 μl added to the upper surface and 5 μl to the lower surface. After three hours, the thickness of the ear was measured to 0.01 mm by a micrometer with loose drag positioned at the lateral-most edge of the mid-point of the pinna. Data were calculated as the inhibition by the test compound of increased ear thickness compared to control animals receiving only the irritant.

Consider two compounds from patent publication US5079260A, “Method for treating inflammation and compounds and compositions suitable for use therein” (Nova Pharmaceutical Corporation, priority 1990, dated 1992).

In the case of `CC(C)C[C@H](NC(=O)OCC1c2ccccc2-c2ccccc21)C(=O)O` [L-Leucine, N-[(9H-Fluoren-9-ylmethoxy)carbonyl]-L-leucine], the “% Inhibition, topical” value stood at 41% in experiment [1]; 66% in experiment [4] (topical, 10 μg upper + 10 μg lower ear surface, 15 min before irritant); 41% in experiment [7] (topical, 100 μg upper + 100 μg lower ear surface, 15 min before irritant, 3 h). Also, the “% Inhibition Intraperitoneal” value is recorded as 58% in experiment [2]; 48% in experiment [3]; 47% in experiment [4] (i.p., 100 mg/kg, 30 min before irritant); 74% in experiment [5] (i.p., 100 mg/kg, 30 min before irritant, ear thickness at thirty minutes); 62% in experiment [6]; 54% in experiment [7] (i.p., 100 mg/kg, 30 min before irritant, ear thickness at 3 h).

“D-Pro^2 -D-Trp^7.9 -Substance P [reference compound]”: the “% Inhibition Intraperitoneal” value in experiment [4] (Reference Standard, 100 μg/ear) worked out at 44%; in experiment [5] (Reference Standard, 100 μg/ear, thirty minutes), 34%.
